The text below walks through data of US5434150A, “Condensed 5-membered heterocyclic compounds, processes for preparing them and pharmaceutical preparations containing these compounds” (Dr. Karl Thomae GmbH, priority 1991, dated 1995).

Structures can show the parent of a compound that is named as a salt. Where two headings read alike, the source gives them in different places.

The subject of one data set is mice. Kind of data set: Tolerance after intravenous administration to mice. Type of data set: in vivo. As to conditions: 30 mg/kg intravenous, three mice.
Data set [1] has as its system platelet aggregation (platelet-rich plasma). Kind of data set: Antithrombotic activity: inhibition of collagen-induced platelet aggregation in platelet-rich plasma (Born and Cross). The data set is classed as cell-based, human (healthy volunteers). As to conditions: 50% change in optical density, human platelet-rich plasma, 10 min preincubation. The protocol: 2. Antithrombotic Activity Method The thrombocyte aggregation is measured using the Born and Cross method (J. Physiol. 170:397 (1964)) in platelet-rich plasma taken from healthy volunteers. To inhibit coagulation the blood is mixed with 3.14% sodium citrate in a ratio by volume of 1:10. Collagen-induced aggregation The pattern of the decrease in optical density of the platelet suspension is photometrically measured and recorded after the addition of aggregation-triggering substance. The rate of aggregation is concluded from the angle of inclination of the density curve. The point on the curve where there is maximum light transmittance is used to calculate the optical density. The amount of collagen used is as small as possible but sufficient to produce an irreversible reaction curve. Standard commercial collagen produced by Hormonchemie of Munich is used. Before the addition of the collagen the plasma is incubated for 10 minutes with the substance at […]. From the measurements obtained an EC50 is determined graphically, indicating a 50% change in the optical density in terms of the inhibition of aggregation.

Another data set concerns the target Human Thrombocytes. The data set can be described thus: Fibrinogen binding to human thrombocytes (fibrinogen binding test). The protocol:
1. Fibrinogen Binding to Human Thrombocytes The blood obtained by puncturing an antecubital vein is anticoagulated with trisodium citrate (final concentration: 13 mM) and centrifuged for 10 minutes at 170× g. The supernatant platelet-rich plasma is poured onto a Sepharose 2B column (Pharmacia) and eluted with a solution of 90 mM common salt, 14 mM trisodium citrate, 5 mM glucose and 50 mM tris(hydroxymethyl)aminomethane, adjusted to pH 7.4. The gel-filtered platelets (GFP) appearing before the plasma proteins are used for the binding experiments. 50 μl of a 60 mM calcium chloride solution, 50 μl of a 0.6 mM adenosine diphosphate solution, 100 μl of substance solution or solvent and 50 μl of fibrinogen solution (containing 3 μg of ^125 fibrinogen) are added to 750 μl of GFP and incubated for 20 minutes at ambient temperature. The non-specific binding is determined in the presence of 3 mg/ml of cold fibrinogen. 900 μl of the incubated material are carefully pipetted onto 250 μl of silicon oil (AP 38: AR 20, 1:2 v/v, Wacker Chemie) in Eppendorf tubes and centrifuged for 2 minutes at 10,000× g. The aqueous supernatant and some of the oil are drawn off, the tips of the tubes are cut off together with the platelet pellet and the quantity of bound fibrinogen is determined in a gamma counter. The concentration of substance which brings about a 50% inhibition in fibrinogen binding is determined from a series of concentrations and is given as the IC50 value. | *^125 I fibrogen was replaced by […] |e.

The mark [2] stands for this setting: 125I fibrinogen, 50% inhibition of fibrinogen binding, gel-filtered human platelets, ADP, 20 min ambient temperature, read-out: Fibrinogen binding test IC50.

Take `Cn1c(-c2ccc(C(=N)N)cc2)nc2cc(C(=O)NCCC(=O)O)ccc21` [Example 1(3), 2-(4-amidino-phenyl)-5-[(2-carboxy-ethyl)-aminocarbonyl]-1-methyl-benzimidazole]: the “deaths after intravenous administration” value in the data set on mice was “no animals died”. A half-maximal effect in data set [1] (EC50) was put at 70 nM. Besides, on Human Thrombocytes (setting [2]), the IC50 turned out to be 37 nM.
In data set [1], `COC(=O)CCCn1c(-c2ccc(C(=N)N)cc2)nc2cc(C(=O)NCCC(=O)OC)ccc21` [3(120), 2-(4-amidino-phenyl)-5-[(2-methoxycarbonyl-ethyl)-aminocarbonyl]-1-(3-methoxycarbonyl-propyl)-benzimidazole-hydrochloride] gave an EC50 of 2000 nM. Further, the IC50 on Human Thrombocytes (*: 125I fibrinogen replaced by 3H-(3S,5S)-5-[(amidino-biphenylyl)-oxymethyl]-carboxymethyl-pyrrolidinone ligand, read-out: Fibrinogen binding test IC50 (values marked *)) came to 1300 nM.
`N=C(N)c1ccc(-c2nc3cc(NC(=O)CCC(=O)O)ccc3[nH]2)cc1` [1(1), 2-(4-amidino-phenyl)-5(6)-[(2-carboxy-ethyl)-carbonyl-amino]-benzimidazole]: it took 6600 nM to reach a half-maximal effect in data set [1] (EC50). Besides, the IC50 on Human Thrombocytes (setting [2]) came out at 600 nM.

One may read the EC50 as the concentration needed to bring the measured effect to its halfway point. Read a high EC50 as weaker potency. The term IC50 denotes the concentration that inhibits the measured activity by half.
